Data from US20260198495A1, “BINARY INSECTICIDE COMPOSITION AND USE THEREOF” (SHENYANG SINOCHEM AGROCHEMICALS R & D CO., LTD., priority 2022, published 2026).

What was measured:
Type in all cases: in vivo
[1] = tested on: 3rd-instar larvae of Pyrausta nubilalis Hubern; assay: Synergism assay (Bliss) of I-72 + abamectin, spinosad, spinetoram, emamectin benzoate, Example 6, Table 6; conditions: Ostrinia nubilalis, 72 h, read-out: Mortality rate (%)
Protocol: Test subject: 3rd-instar larvae of Pyrausta nubilalis Hubern, a sensitive strain reared indoors.
Test conditions: temperature: 24-26° C., humidity: RH 60%, and illumination: L:D=14:10
Preparation method: the test pesticides were accurately weighed respectively with an electronic analytical balance. After the two technical materials were respectively added into an appropriate amount of solvent and completely dissolved, the stock solution of the required concentration was prepared with water containing 0.1% Tween 80. The stock solutions of the two active ingredients were mixed in a certain ratio to prepare a mixed solution, which was then diluted respectively into a series of pesticide solutions with a certain concentration gradient according to the experimental design dosage.
Experimental method: the artificial diet-pesticide film method was adopted. A standard clean 24-well culture plate was selected. 1 ml of artificial diet was added to each well. After the diet cooled and solidified, a quantitative amount of a pesticide solution was added to the culture plate using a continuous sampler, and then it was air-dried naturally in the shade. The standard test insects were introduced, with 1 insect in each well, a total of 48 insects. The treated test insects were placed in an observation room under certain conditions. The reaction of the test insects was regularly observed, and the number of dead and live insects was investigated 72 h later.
The evaluation method adopted was the Bliss method. This method is applicable to the qualitative screening of insecticidal compositions. According to the concept of independent joint action he proposed, Bliss believes that the theoretical mortality rate P when insecticides are used in combination can be calculated by the following formula: […]
Pm is the mortality rate (%) of the target when the first active ingredient is at a concentration of m; and Pn is the mortality rate (%) of the target when the second active ingredient is at a concentration of n.
If the actual mortality rate of the target after the two active ingredients are mixed at a certain concentration is greater than theoretical mortality rate P, it is determined that the two active ingredients have a synergistic effect when used in combination at the set concentration, and otherwise, they have an antagonistic effect.

[2] = tested on: 2nd-instar nymphs of Frankliniella occidentalis Pergande; assay: Joint toxicity of I-72 + carbosulfan, leaf spraying, Example 22, Table 22; conditions: 2nd-instar nymphs, kidney bean leaf spraying, 48 h, A = compound I-72, B = carbosulfan, read-out: LC50
Protocol: Test subject: 2nd-instar nymphs of Frankliniella occidentalis Pergande, a sensitive strain reared indoors.
(§1) Preparation of the pesticide solution: according to different test requirements, the test samples in Table 1 were accurately weighed respectively with an electronic analytical balance. The technical pesticides were dissolved in acetone, and then diluted with 0.1% Tween 80 water into a series of pesticide solutions with a certain concentration gradient according to the experimental design dosage.
Test conditions: temperature: 25-27° C., humidity: RH 60%, and illumination: L:D=14:10
Experimental method: the spraying method was adopted. The kidney bean leaves cultivated in the greenhouse were selected, and the petioles were wrapped with moist degreased cotton and sealing film. They were evenly sprayed with the pesticide solution in the order from low dosage to high dosage according to the experimental design, placed in a 6-cm-diameter Petri dish with filter paper. After natural air-drying in the shade, the test insects were introduced, with 20 insects for each treatment and 3 replicates. In addition, a blank control was set up. […] The corrected mortality rate was calculated using the Abbott's formula, and the DPS data processing software was used for statistical analysis to calculate the toxicities (LC50 values) of the single test pesticides and the mixtures under the test ratios. […]

[3] = tested on: adult Phyllotreta striolata (Walker); assay: Joint toxicity of I-72 + rotenone, insect dipping, Example 35, Table 35; conditions: A = compound I-72, B = rotenone, insect dipping 10 s, read-out: LC50
From the text: Test target: adult Phyllotreta striolata (Walker), a strain reared indoors.
Experimental method: the dipping method was adopted. Adult flea beetles of uniform size were put into an insect-dipping cage and dipped for 10 s in the order from low dosage to high dosage according to the experimental design, with 30 beetles for each treatment. The beetles were placed in a 9-cm-diameter Petri dish with filter paper, with 3 replicates for each treatment. In addition, a blank control was set up. The treated test materials were placed in an observation room, and the temperature, humidity and illumination of the observation room could be adjusted as needed.
The test conditions, the preparation of the pesticide solution and the evaluation method were the same as those in Example 1.

[4] = tested on: 2nd-instar larvae of Plutella xylostella; assay: Synergism screening (Bliss) of I-72 + insect attractants and insecticides, Example 49, Table 49; conditions: Plutella xylostella; single pesticide, 0.1 mg/L; 72 hours; read-out: Measured mortality rate
Protocol: Test target: 2nd-instar larvae of Plutella xylostella.
as §1, with “samples” for “samples in Table 1”
Experimental method: first, cabbage leaves were selected and dipped in the prepared pesticide solution for 10 s in the order from low dosage to high dosage according to the experimental design. After natural air-drying in the shade, they were placed in a 9-cm-diameter Petri dish with filter paper, and uniform and healthy test insects were introduced, with 10 insects for each treatment and 3 replicates for each treatment. In addition, a blank control CK was set up.
The treated test materials were placed in an observation room, and the temperature, humidity and illumination of the observation room could be adjusted as needed. The number of dead and alive insects was investigated 72 hours later, and the corrected mortality rate was calculated using the Abbott's formula.
The synergism of the mixture was evaluated by adopting the Bliss method, as in Example 5.

[5] = tested on: Aphis citricola van der Goot nymphs; assay: Joint toxicity of I-72 + nicotine, Example 72, Table 72; conditions: A = compound I-72, B = nicotine, apple leaf spraying, 48 hours
Protocol: Test target: Aphis citricola van der Goot nymphs.
as §1, with “samples” for “samples in Table 1”
Experimental method: first, apple leaves with uniform and consistent Aphis citricola van der Goot were selected, with about 30-40 insects on each leaf. Then, they were evenly sprayed with the pesticide solution in the order from low dosage to high dosage according to the experimental design, with 1.5 mL for each leaf and 3 replicates for each treatment. In addition, a blank control was set up.
The treated test materials were placed in an observation room, and the temperature, humidity and illumination of the observation room could be adjusted as needed. The number of dead and live insects was investigated 48 hours later. […] Then, the co-toxicity coefficient of each ratio was calculated using the Sun Y-P method to evaluate the mixing effect (the same as in Example 1).

CN(C(=O)c1ccc2c(c1)OC(F)(F)O2)c1cccc(C(=O)Nc2c(Br)cc(C(F)(C(F)(F)F)C(F)(F)F)cc2OC(F)F)c1F [Compound I-72]
mortality at 0.05 µg/mL ([1]; single agent 0.05 mg/L): 10.4% | mortality at 0.1 µg/mL ([1]; single agent 0.1 mg/L): 25% | mortality at 1 µg/mL ([1]; single agent 1 mg/L): 62.5% | mortality at 2 µg/mL ([1]; single agent 2 mg/L): 72.9% | mortality at 5 µg/mL ([1]; single agent 5 mg/L): 81.2% | LC50 [2]: 2.15 µg/mL | LC50 [3]: 1.81 µg/mL | mortality at 0.1 µg/mL [4]: 46.9% | LC50 [5]: 3.06 µg/mL
